Results published in patent US12064405B2, “Immunosuppressant comprising TSAHC or a pharmaceutically acceptable salts thereof as an active ingredient” (Seoul National University R&DB Foundation, priority 2020, dated 2024).

Assays:
[1] = system: Hep3B cell line expressing TM4SF5; assay: qRT-PCR of CCL20 and CXCL10 mRNA in IL-6-treated Hep3B cell line; assay type: cell-based, human; conditions: IL-6 100 ng/ml, TSAHC 0.1 or 0.5 μM for 24 hours
Procedure: Hep3B cell line expressing TM4SF5 that was not treated with IL-6 or treated at a concentration of 100 ng/ml was treated with or without TSAHC at a concentration of 0.1 or 0.5 μM for 24 hours. Then, qRT-PCR was performed using the cells.
Specifically, to perform qRT-PCR, the cells or tissues were disrupted using Qiazol (Qiagen, USA), to which chloroform was added, and the upper […] layer was separated by centrifugation at 4° C., 12,000×g for 15 minutes. RNA was precipitated by adding isopropanol to the separated […] layer, followed by washing with 70% ethanol. RNA pellet was isolated by centrifugation at 7,500×g for 5 minutes, ethanol was evaporated for 10 minutes, and dissolved in 30 μl of DEPC-water. After removing gDNA from the dissolved RNA, it was reverse transcribed using a reverse transcription kit (Toyobo, Japan) to obtain cDNA. The expression was measured by real-time PCR (Biorad, USA) with the obtained cDNA using 2×Eva green master mix (Labopass, Korea) and 0.4 μM forward/reverse primers. The expression amount was calculated using the modified delta-delta Ct method of Pfaffl.

cells expressing TM4SF5 = assay: Activation of glycolytic function (acidification of extracellular solution, Seahorse); assay type: cell-based
Procedure: The cells expressing TM4SF5 were treated with vehicle, a negative control compound (4′-methoxy-4-dihydroxychalcone) or TSAHC. Then, the degree of activation of glycolytic function was measured by measuring the acidification of the extracellular solution due to glycolysis while additionally adding glucose at various concentrations using Seahorse equipment.

TM4SF5 and IL6-Rα = target: T1, TM4SF5 and IL6-Rα (Homo sapiens, UniProt O14894); assay: Binding of TM4SF5 and IL6-Rα (streptavidin-agarose precipitation, Western blotting); assay type: cell-based; conditions: hepatic epithelial cells expressing TM4SF5-Strep; FIG. 10
T1 construct: expressed in transfected cells
T1 sequence (O14894 1-197): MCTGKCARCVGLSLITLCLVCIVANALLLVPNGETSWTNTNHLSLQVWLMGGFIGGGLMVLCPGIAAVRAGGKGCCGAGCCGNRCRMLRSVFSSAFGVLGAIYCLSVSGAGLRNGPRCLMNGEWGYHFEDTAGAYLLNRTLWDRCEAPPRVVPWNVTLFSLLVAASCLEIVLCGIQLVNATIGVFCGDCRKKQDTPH
Procedure: Hepatic epithelial cells were infected with an empty vector (EV) or lentivirus expressing TM4SF5, and TSAHC was not treated (−) or treated (+) thereto. A cell extract was obtained, and TM4SF5-Strep was precipitated using strepavidin-agarose beads, and then Western blotting was performed with the IL-6 receptor, IL-6Rα antibody.

[2] = system: mouse model in which liver fibrosis is induced by the treatment of CCl4; assay: CCl4-induced liver damage, inflammation and fibrosis mouse model with TSAHC treatment; assay type: in vivo; conditions: CCl4-treated mice, 4 weeks
Procedure: In a mouse animal model that can be accompanied by cell damage and inflammation when liver fibrosis is induced by the treatment of CCl4, the animal groups periodically treated (+) or not treated (−) with TSAHC during the CCl4 treatment were obtained. The body weight during 4 weeks of the treatment and the liver tissue weight after 4 weeks were calculated as a ratio (liver/body weight), or the ALT liver levels were measured from blood samples. The liver tissue was obtained and Tm4sf5 mRNA was measured by qRT-PCR.
In an animal model treated with CCl4 to induce liver fibrosis, the animal groups periodically treated (+) or not treated (−) with TSAHC during the CCl4 treatment were obtained. After 4 weeks of the treatment, the liver tissue was obtained and H&E and Masson's trichrome staining was performed.
In an animal model treated with CCl4 to induce liver fibrosis, the animal groups periodically treated (+) or not treated (−) with TSAHC during the CCl4 treatment were obtained. After 4 weeks of the treatment, the liver tissue was obtained and immunostaining was performed for Ccl20 and Cxcl10.
(§1) In a mouse model that can be accompanied by cell damage and inflammation when liver fibrosis is induced by CCl4 treatment, the animal groups periodically treated (+) or not treated (−) with TSAHC during the CCl4 treatment were obtained. After 4 weeks of the treatment, the liver tissue was obtained and immunostaining was performed for F4/80, a macrophage marker.
as §1, with “α-SMA indicating the activation of hepatic stellate cells.” for “F4/80, a macrophage marker.”

[3] = system: SNU449-TM4SF5-HA cell line; assay: RNA-Seq / mRNA-Seq of inflammatory cytokine and chemokine expression in TM4SF5-expressing hepatic epithelial cells; assay type: cell-based, human; conditions: 10 μM TSAHC for 24 hours
Procedure: To confirm whether the TSAHC treatment affects the expression and secretion of inflammatory cytokines and chemokines in TM4SF5 expression-dependent hepatic epithelial cells, RNA-Seq analysis and mRNA-Seq analysis comparing the mRNA expression were performed in SNU449-HA cell line in which the control vector was safely injected into SNU449, SNU449-TM4SF5-HA cell line injected with TM4SF5 expression vector, and SNU449-TM4SF5-HA cell line treated with 10 μM of TSAHC for 24 hours using the liver tissue of Tg^TM4SF5 overexpressing TM4SF5 or Tm4sf5^−/− KO C57BL/6 mice in Macrogen, Inc. (Seoul, Korea).
The experimental procedure for mRNA-Seq analysis included the followings. […] RNA library was constructed through qPCR using an agilent technologies 2100 bioanalyzer according to qPCR quantification protocol guide. Quality control analysis of the raw reads obtained through sequencing was performed. […] Aligned reads were generated after mapping the pre-treated reads to reference genome using HISAT2 program considering splice. Transcript assembly was performed through the String Tie program using paired information of the aligned reads based on the reference. The expression level obtained through the transcript quantification of each sample was calculated as a normalization value considering the transcript length and depth of coverage. […]

[4] = system: cell lines expressing TM4SF5; assay: qRT-PCR of M1-type macrophage chemokines/cytokines CCL2, TNF-α, IL-6, IL-1β; assay type: cell-based; conditions: cell line expressing TM4SF5, LPS and IFN-γ
Procedure: Cell lines not expressing TM4SF5 (EV) or cell lines expressing thereof (TM4SF5) were treated (+) or not treated with LPS and IFN-γ, treated (+) or not treated with 2-DG (2-Deoxy-D-glucose) as a drug for inhibiting glycolysis at a given concentration, and additionally treated (+) or not treated with TSAHC (−). Then, the mRNA expression levels of CCL2, TNF-α, IL-6, and IL-1β, the chemokines/cytokines indicating the activation of M1-type macrophages, were confirmed by qRT-PCR.

Cc1ccc(S(=O)(=O)Nc2ccc(C(=O)/C=C/c3ccc(O)cc3)cc2)cc1 [TSAHC, 4′-(p-toluenesulfonylamido)-4-hydroxychalcone]
CCL20 mRNA expression level increased by IL-6 ([1]; FIG. 4A): reduced | CXCL10 mRNA expression level increased by IL-6 ([1]; FIG. 4B): reduced | glycolysis of the cells not expressing TM4SF5 (EV) (cells expressing TM4SF5; EV cell line, FIG. 8B): not changed | glycolytic function of cells expressing TM4SF5 (cells expressing TM4SF5; various concentrations of glucose added, FIG. 8C): decreased | binding of TM4SF5 and IL6-Rα (TM4SF5 and IL6-Rα): inhibited | Tm4sf5 mRNA expression level in liver tissue ([2]; FIG. 19A): decreased | liver tissue weight and body weight (ratio liver/body weight) ([2]; FIG. 19C): decreased | collagen accumulation (Masson's trichrome staining) ([2]; FIG. 20): decreased | degree of liver tissue damage / irregular cell composition (H&E staining) ([2]; FIG. 20): decreased | Ccl20 mRNA expression level in liver tissue ([2]; FIG. 21): decreased | Cxcl10 mRNA expression level in liver tissue ([2]; FIG. 21): decreased | F4/80 mRNA expression in liver tissue ([2]; FIG. 22B): decreased | α-SMA mRNA expression in liver tissue ([2]; FIG. 23B): decreased | ALT level ([2]; blood samples, FIG. 19B): decreased | expression and secretion of cytokines/chemokines (IL6, IL1β, TNFα, CXCL1, CXCL2, CXCL3, CXCL6, CXCL8, CCL2, CCL5, CCL20, CXCL10, CCR10) according to TM4SF5 expression [3]: suppressed | CCL2 mRNA expression level ([4]; FIG. 11A): decreased | TNF-α mRNA expression level ([4]; FIG. 11B): decreased | IL-6 mRNA expression level ([4]; FIG. 11C): decreased | IL-1β mRNA expression level ([4]; FIG. 11D): decreased
